Measurements from patent US7250410B2, “Cyclic nucleotide phosphodiesterase inhibitors, preparation and uses thereof” (Via Pharmaceuticals, Inc., priority 2001, dated 2007).
pIC50: −log10 of the molar value. Several values for one entry are separate records, joined by “and”; a condition that tells them apart may be missing. Identical values can stand only once.

Columns and labels:
PDE1 = test: Selectivity: inhibition of PDE1, radioenzymatic phosphodiesterase assay; format: biochemical, bovine; set-up: PDE1 percentage inhibition at 10 μM: unit: %; conditions: Table 4 Selectivity; for PDE1 percentage inhibition at 10 μM: compound at 10 μM
Protocol: (§1) A 3 g segment of bovine aortic media cut into pieces with scissors was homogenized with an ultra-turrax then a potter glass/glass homogenizer in 7 volumes by weight of buffer A containing a protease inhibitor cocktail (20 mM Tris-HCl, 0.25 M saccharose, 2 mM magnesium acetate, 1 mM dithiothreitol, 5 mM EGTA, 2000 U/ml aprotinin, 10 mg/l leupeptin and 10 mg/l soya trypsic inhibitor). The homogenizate was centrifuged at 105,000 g for 1 hour. The supernatant was loaded on a DEAE-Sephacel column (15×1.6 cm) pre-equilibrated with buffer B (buffer A without the saccharose, EGTA and protease inhibitors). The column was washed until there was no detectable absorption at 280 nm, then eluted with a linear gradient of NaCl (0–0.5 M) in buffer B. 3-ml fractions were collected and enzyme activity was determined under the conditions described hereinafter to localize the different enzymes PDE1, PDE3, PDE4 and PDE5, which were aliquoted and frozen at −80° C. (Lugnier et al., Biochem. Phamacol., 35 (1986) 1746–1751). PDE2 was prepared from bovine endothelial cells by the same methods (Lugnier and Schini, Biochem. Pharmacol. 1990, 39; 75–84).
(§2) Cyclic nucleotide phosphodiesterase activity was determined by a radioenzymatic method using tritium-labelled cyclic GMP or AMP (1 μM) as substrate (Lugnier et al., 1986). ^3H-labelled adenosine or guanosine monophosphate formed by hydrolysis of the radiolabelled cyclic nucleotide was then converted to ^3H-labelled adenosine or guanosine in a second reaction with […] in excess. The nucleoside formed was separated from the nucleotides by anion exchange chromatography. Nucleoside radioactivity was determined by liquid scintillation counting. Enzymatic incubations were carried out under conditions allowing no more than 15% hydrolysis of the substrate; each point was performed in duplicate.
(§3) The activity of the compounds was evaluated on other phosphodiesterase isoforms, particularly basal state or calmodulin-activated PDE1 from vascular smooth muscle, basal state or cyclic GMP-activated PDE2 from vascular endothelial cells, PDE3 and PDE5 from vascular smooth muscle.
(§4) The results obtained are presented in Table 4 hereinafter and are expressed as the percentage inhibition of enzymatic activity produced by […] of the tested compound.

TNFα = TNFα production by LPS-activated mononuclear cells from venous blood (ELISA); format: cell-based; conditions: Homo sapiens
Protocol: Compounds according to the invention were assessed for anti-inflammatory properties on mononuclear cells from venous blood of healthy donors (n=4), by a protocol approved by the Alsace No. 1 Ethics Committee. More specifically, the cells were incubated for 24 hours in 24-well plates in the presence of the test compound, after activation by Salmonella Abortis Equi lipopolysaccharide (LPS) (5 pg/ml) (cf. De Groote et al., Cytokine 4, 1992, 239). After incubation, TNFα concentrations were determined in the culture supernatant by an ELISA method (Antibody Solutions, Half Moon Bay, Calif., USA).

PDE4 = test: Inhibition of PDE4, radioenzymatic phosphodiesterase assay; format: biochemical, bovine
Procedure, shortened: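 PDE4 partially purified from bovine aortic media by 105,000 g centrifugation and anion-exchange chromatography with an NaCl gradient. Activity measured radioenzymatically: product nucleoside separated from nucleotides by anion exchange and counted by liquid scintillation.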

PDE5 = target: T1, PDE5 (Bos taurus, UniProt Q28156); test: Selectivity: inhibition of PDE5, radioenzymatic phosphodiesterase assay; format: biochemical, bovine; conditions: Table 4 Selectivity
T1 construct: localize the different enzymes PDE1, PDE3, PDE4 and PDE5, which were aliquoted and frozen; from tissue; host or cells: bovine aortic media (vascular smooth muscle), DEAE-Sephacel fraction
Protocol: as §1, §2, §3, §4

IL1β, IL6 and IL8 = IL1β, IL6 and IL8 secretion by LPS-activated mononuclear cells from venous blood; format: cell-based, human; conditions: compound at 1 μM
PDE2 = target: T2, PDE2 (Bos taurus, UniProt P14099); test: Selectivity: inhibition of PDE2, radioenzymatic phosphodiesterase assay; format: biochemical, bovine; conditions: Table 4 Selectivity; for inhibition at 10 µM: compound at 10 μM, read-out: PDE2 percentage inhibition at 10 μM
T2 construct: PDE2 was prepared from bovine endothelial cells by the same methods; endogenous in cells; host or cells: bovine vascular endothelial cells, DEAE-Sephacel fraction
T2 sequence (P14099 1-921): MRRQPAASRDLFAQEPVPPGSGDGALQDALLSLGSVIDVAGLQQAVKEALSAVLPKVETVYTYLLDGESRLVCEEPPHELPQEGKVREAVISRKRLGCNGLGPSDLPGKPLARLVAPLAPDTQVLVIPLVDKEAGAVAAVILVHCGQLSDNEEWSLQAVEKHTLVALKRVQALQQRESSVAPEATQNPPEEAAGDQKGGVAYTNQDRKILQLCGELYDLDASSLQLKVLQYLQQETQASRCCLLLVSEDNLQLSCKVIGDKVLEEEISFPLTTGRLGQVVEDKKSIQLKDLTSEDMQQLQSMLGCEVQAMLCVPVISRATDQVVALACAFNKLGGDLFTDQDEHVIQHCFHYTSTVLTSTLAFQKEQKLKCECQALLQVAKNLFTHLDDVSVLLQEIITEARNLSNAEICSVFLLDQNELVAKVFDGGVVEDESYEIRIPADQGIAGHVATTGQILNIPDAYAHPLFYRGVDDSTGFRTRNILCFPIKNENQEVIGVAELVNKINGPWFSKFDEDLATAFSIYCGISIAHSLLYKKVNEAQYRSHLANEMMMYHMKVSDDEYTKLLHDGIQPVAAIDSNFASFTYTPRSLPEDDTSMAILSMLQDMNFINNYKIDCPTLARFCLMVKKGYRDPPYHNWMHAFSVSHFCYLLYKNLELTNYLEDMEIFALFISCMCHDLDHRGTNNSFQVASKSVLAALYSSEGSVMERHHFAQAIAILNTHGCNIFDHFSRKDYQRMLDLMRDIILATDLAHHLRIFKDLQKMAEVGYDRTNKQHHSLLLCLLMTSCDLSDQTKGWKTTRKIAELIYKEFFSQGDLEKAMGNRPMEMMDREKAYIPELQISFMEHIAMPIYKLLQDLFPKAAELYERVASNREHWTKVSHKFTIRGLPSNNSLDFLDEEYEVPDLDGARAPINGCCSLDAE
Protocol: as §1, §2, §3, §4

PDE3 = target: T3, PDE3 (Bos taurus, UniProt A0A3Q1M1E8); test: Selectivity: inhibition of PDE3, radioenzymatic phosphodiesterase assay; format: biochemical, bovine; conditions: read-out: PDE3 percentage inhibition at 10 μM
T3 sequence (A0A3Q1M1E8 1-1126): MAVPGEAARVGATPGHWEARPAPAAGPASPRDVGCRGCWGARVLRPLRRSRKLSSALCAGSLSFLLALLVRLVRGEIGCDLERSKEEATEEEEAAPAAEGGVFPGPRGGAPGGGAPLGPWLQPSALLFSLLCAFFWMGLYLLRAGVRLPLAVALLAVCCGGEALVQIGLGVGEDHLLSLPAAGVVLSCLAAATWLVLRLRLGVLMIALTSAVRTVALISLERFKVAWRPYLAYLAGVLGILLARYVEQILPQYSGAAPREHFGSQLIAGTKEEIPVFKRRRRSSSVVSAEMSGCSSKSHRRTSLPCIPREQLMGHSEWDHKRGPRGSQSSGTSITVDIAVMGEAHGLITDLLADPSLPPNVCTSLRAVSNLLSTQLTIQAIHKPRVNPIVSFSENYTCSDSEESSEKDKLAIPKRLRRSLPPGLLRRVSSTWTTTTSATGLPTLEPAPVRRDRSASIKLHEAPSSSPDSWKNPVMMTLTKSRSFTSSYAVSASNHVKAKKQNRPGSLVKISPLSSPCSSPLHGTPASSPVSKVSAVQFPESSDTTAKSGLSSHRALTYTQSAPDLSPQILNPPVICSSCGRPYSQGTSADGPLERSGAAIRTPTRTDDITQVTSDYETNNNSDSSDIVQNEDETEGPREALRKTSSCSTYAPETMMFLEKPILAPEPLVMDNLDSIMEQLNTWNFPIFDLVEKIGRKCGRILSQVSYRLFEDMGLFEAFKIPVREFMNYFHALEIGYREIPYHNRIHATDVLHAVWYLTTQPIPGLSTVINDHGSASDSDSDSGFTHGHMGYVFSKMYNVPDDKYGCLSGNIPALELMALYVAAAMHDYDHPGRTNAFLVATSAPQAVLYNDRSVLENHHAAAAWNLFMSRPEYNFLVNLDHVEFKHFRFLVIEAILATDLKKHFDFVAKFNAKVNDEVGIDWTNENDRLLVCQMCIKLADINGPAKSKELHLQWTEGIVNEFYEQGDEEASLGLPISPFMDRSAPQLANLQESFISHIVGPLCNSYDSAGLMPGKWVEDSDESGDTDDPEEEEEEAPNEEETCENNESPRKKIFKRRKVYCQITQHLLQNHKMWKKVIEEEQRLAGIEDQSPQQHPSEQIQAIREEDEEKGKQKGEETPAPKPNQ
Protocol: as §1, §2, §3, §4

[1] = Table 1, formula (III), 1 μM cyclic AMP
[2] = Table 3, formula (II), 1 μM cyclic AMP
[3] = Table 2, formula (XXII), 1 μM cyclic AMP

| SMILES | pIC50 (PDE1) | inhibition at 1 µM (TNFα; compound at 1 μM, 24 hours, LPS 5 pg/ml, read-out: inhibition of TNFα production) [%] | pIC50 (PDE4; [1]) | pIC50 (PDE4; Table 4 Selectivity) | pIC50 (PDE5) | IL1β, IL6 and IL8 secretion levels (IL1β, IL6 and IL8) | pIC50 (PDE2) | PDE1 percentage inhibition at 10 μM (PDE1) [%] | inhibition at 10 µM (PDE3) [%] | inhibition at 10 µM (PDE2) [%] | pIC50 (PDE4; [2]) | pIC50 (TNFα; read-out: anti-TNFα activity IC50) | pIC50 (PDE4; [3]) | inhibition at 10 µM (PDE5; compound at 10 μM, read-out: PDE5 percentage inhibition at 10 μM) [%] |
| --- | --- | --- | --- | --- | --- | --- | --- | --- | --- | --- | --- | --- | --- | --- |
| COc1cc2c(cc1OC)C(c1cc3ccccc3s1)=NN(C)C(=O)C2 [IIIab, 1-(2-benzo[b]thienyl)-7,8-dimethoxy-3-methyl-3,5-dihydro-4H-2,3-benzodiazepin-4-one] | 5.42 | 100 | 6.52 | 6.52 | 5.37 | not at all altered | 4.80 |  |  |  |  |  |  |  |
| COc1cc2c(cc1OC)C(c1ccc(-c3ccco3)cc1)=NN(C)C(=O)C2 [IIIav, 1-[4-(2-furyl)phenyl]-7,8-dimethoxy-3-methyl-3,5-dihydro-4H-2,3-benzodiazepin-4-one] |  |  | 6.05 | 6.05 | 4.40 |  | 4.72 | 49 | 92 |  |  |  |  |  |
| CCOc1cc2c(cc1OCC)C(CC)C(=O)N(C)N=C2c1cc2ccccc2s1 (stereo not drawn) [IIIbb, 1-(2-benzo[b]thienyl)-7,8-diethoxy-5-ethyl-3-methyl-3,5-dihydro-4H-2,3-benzodiazepin-4-one] | 4.85 |  | 7.06 | 7.06 | 5.24 |  |  |  |  | 25 |  |  |  |  |
| CCOc1cc2c(cc1OCC)N(CC)C(=O)CN=C2c1ccccc1 [IIbg, 7,8-diethoxy-1-ethyl-5-phenyl-1,3-dihydro-2H-1,4-benzodiazepin-2-one] |  |  |  | 6.05 |  |  |  | 47 | 40 | 20 | 6.05 and 5.80 |  |  |  |
| CCOc1cc2c(cc1OC)C(c1ccccc1)=NC(Cc1cccc(C(N)=O)c1)C(=O)N2C (stereo not drawn) [IIdh, 3-[(8-ethoxy-7-methoxy-1-methyl-2-oxo-5-phenyl-2,3-dihydro-1H-1,4-benzodiazepin-3-yl)methyl]benzamide] |  |  |  |  |  |  |  |  |  |  | 6.28 | 6.00 to 7.00 |  |  |
| CCOc1cc2c(cc1OCC)C(c1ccccc1)=NC(C)C(=O)N2 (stereo not drawn) [XXIIai, 7,8-diethoxy-3-methyl-5-phenyl-1,3-dihydro-2H-1,4-benzodiazepin-2-one] |  |  |  | 5.77 |  |  |  | 55 | 55 | 6 |  |  | 5.77 |  |
| CCOc1cc2c(cc1OC)C(c1ccccc1)=NCC(=O)N2 [XXIIam, 8-ethoxy-7-methoxy-5-phenyl-1,3-dihydro-2H-1,4-benzodiazepin-2-one] |  |  |  | 6.15 |  |  |  | 29 | 36 | 36 |  |  | 6.15 | 35 |
